According to patent publication US20120027687A1, “FATTY ACID PROTEIN KINASE C ACTIVATORS AND ANTICOAGULANT FOR THE TREATMENT OF STROKE” (priority 2010, published 2012):

Tests used:
[1] = molecular target: T1, PKCε (Homo sapiens, UniProt Q02156); conditions: cited from earlier work
T1 construct: purchased Calbiochem
T1 sequence (Q02156 1-737): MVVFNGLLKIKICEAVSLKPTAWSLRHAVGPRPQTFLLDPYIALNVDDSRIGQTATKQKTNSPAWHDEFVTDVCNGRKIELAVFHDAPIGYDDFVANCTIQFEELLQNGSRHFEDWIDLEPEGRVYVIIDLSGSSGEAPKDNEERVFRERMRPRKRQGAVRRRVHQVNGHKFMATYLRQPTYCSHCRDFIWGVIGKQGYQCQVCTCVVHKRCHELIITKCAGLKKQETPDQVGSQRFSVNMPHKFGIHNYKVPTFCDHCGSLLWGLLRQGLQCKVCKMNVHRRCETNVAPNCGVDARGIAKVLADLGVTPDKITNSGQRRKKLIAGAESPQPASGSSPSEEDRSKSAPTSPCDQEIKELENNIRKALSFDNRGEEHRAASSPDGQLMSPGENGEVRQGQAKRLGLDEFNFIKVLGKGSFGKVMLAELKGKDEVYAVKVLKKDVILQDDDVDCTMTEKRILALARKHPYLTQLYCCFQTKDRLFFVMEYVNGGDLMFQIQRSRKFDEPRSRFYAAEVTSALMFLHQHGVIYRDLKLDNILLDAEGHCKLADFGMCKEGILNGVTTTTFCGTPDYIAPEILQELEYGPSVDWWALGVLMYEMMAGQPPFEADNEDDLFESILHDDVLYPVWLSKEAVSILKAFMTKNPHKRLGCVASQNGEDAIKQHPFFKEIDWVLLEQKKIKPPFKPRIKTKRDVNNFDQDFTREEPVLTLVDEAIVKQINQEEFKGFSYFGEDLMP

[2] = tested on: TACE; experiment: TACE activity in neuronal cells; type: cell-based, human, mouse; conditions: SH-SY5Y cells, N2a cells, primary neurons from rat hippocampus
Method: TACE Assay. TACE was measured by incubating 5 μl cell homogenate, 3 μl buffer (50 mM Tris-HCl 7.4 plus 25 mM NaCl plus 4% glycerol), and 1 μl of 100 μM TACE substrate (Aβz-[…]-DPa) (Calbiochem) for 20 min at 37° C. 1.5-ml polypropylene centrifuge tubes. Jin et al., Anal. Biochem. (2002), vol. 302, pp. 269-275. The reaction was stopped by cooling to 4° C. The samples were diluted to 1 ml and the fluorescence was rapidly measured (ex=320 nm, em=420 nm) in a Spex Fluorolog 2 spectrofluorometer.

[3] = tested on: SH-SY5Y neuroblastoma cells; experiment: Cell survival and proliferation (alamar Blue, CyQuant); type: cell-based, human; conditions: alamar Blue and CyQuant staining
Method: (§1) Aβ Measurement and Cell Viability Assay. Aβ was measured using an Aβ 1-42 human fluorimetric ELISA kit (Invitrogen) according to the manufacturer's instructions. Results were measured in a Biotek Synergy HT microplate reader. AlamarBlue and CyQuant NF (Invitrogen) according to the manufacturer's instructions.

[4] = tested on: Aβ; experiment: Aβ production in N2a neuroblastoma cells transfected with human APPSwe/PSID; type: cell-based, mouse; conditions: 24 hours
Method: (§2) Cell culture. Rat hippocampal H19-7/IGF-IR cells (ATCC, Manassas, Va.) were plated onto poly-L-lysine coated plates and grown at 35° C. in DMEM/10% FCS for several days until about 50% coverage was obtained. The cells were then induced to differentiate into a neuronal phenotype by replacing the medium with 5 ml N2 medium containing 10 ng/ml basic fibroblast growth factor at 39° C. and grown in T-75 flasks at 37° C. Human SH-SY5Y neuroblastoma cells (ATCC) were cultured in 45% F12K/45% MEM/10% FCS. Mouse N2A neuroblastoma cells were cultured in DMEM/10% FCS without glutamine. Rat hippocampal neurons from 18-day-old embryonic Sprague Dawley rat brains were plated on 12- or 96-well plates coated with poly-D-lysine (Sigma-Aldrich, St. Louis, Mo.) in B-27 neurobasal medium containing 0.5 mM glutamine and 25 μM glutamate (Invitrogen, Carlsbad, Calif.) and cultured for three days in the medium without glutamate. The neuronal cells were grown under 5% CO2 in an incubator maintained at 37° C. for 14 days.
as §1
To measure the effects of PKCε activation on Aβ production, mouse neuro2a (N2a) neuroblastoma cells transfected with human APPSwe/PSID were used, which produce large quantities of Aβ. Petanceska et al., J. Neurochem. (1996), vol. 74, pp. 1878-1884. […] With bryostatin, which activates PKC by binding to the diacylglycerol-binding site, the inhibition was biphasic with concentrations of 20 nM or higher producing no net effect. This may be explained by the ability of this class of PKC activators to downregulate PKC when used at high concentrations.

[5] = molecular target: T2, PKCδ (Homo sapiens, UniProt Q05655); experiment: PKC assay with purified PKCδ; type: biochemical; conditions: about 1-100 μM, data not shown
T2 construct: purchased Calbiochem
T2 sequence (Q05655 whole entry): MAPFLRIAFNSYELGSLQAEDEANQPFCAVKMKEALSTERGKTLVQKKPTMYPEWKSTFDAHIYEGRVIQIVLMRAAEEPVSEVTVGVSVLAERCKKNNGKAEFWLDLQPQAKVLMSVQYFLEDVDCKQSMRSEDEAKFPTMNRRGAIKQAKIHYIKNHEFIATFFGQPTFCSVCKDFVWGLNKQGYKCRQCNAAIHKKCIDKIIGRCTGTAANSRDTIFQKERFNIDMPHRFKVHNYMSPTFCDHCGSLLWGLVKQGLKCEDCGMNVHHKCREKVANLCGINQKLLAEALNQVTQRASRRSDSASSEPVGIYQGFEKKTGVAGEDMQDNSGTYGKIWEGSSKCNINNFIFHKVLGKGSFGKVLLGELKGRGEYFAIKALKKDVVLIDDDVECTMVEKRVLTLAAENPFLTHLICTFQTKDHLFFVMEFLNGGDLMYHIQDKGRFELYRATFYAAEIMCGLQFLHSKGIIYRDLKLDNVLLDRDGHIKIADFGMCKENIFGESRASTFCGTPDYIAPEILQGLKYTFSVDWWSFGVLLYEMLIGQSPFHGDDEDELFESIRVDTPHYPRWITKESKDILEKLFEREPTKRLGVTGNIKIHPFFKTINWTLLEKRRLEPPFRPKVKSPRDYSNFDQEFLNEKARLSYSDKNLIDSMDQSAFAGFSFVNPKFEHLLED
Method: Protein kinase C assay. Rat hippocampal cells were cultured and scraped in 0.2 ml homogenization buffer (20 mM Tris-HCl, pH 7.4, 50 mM NaF, 1 μg/ml leupeptin, and 0.1 mM PMSF) and homogenized by sonication a Marsonix microprobe sonicator (5 sec, 10W). To measure PKC, 10 μl of cell homogenate or purified PKC isozyme (purchased from Calbiochem) was incubated for 15 min at 37° C. in the presence of 10 μM histones, 4.89 mM CaCl2, 1.2 μg/μl phosphatidyl-L-serine, 0.18 μg/μl 1,2-dioctanoyl-sn-glycerol, 10 mM MgCl2, 20 mM HEPES (pH 7.4), 0.8 mM EDTA, 4 mM EGTA, 4% glycerol, 8 μg/ml aprotinin, 8 μg/ml leupeptin, and 2 mM benzamidine. 0.5 Ci [^γ32P]ATP was added and ^32P-phosphoprotein formation was measured by adsorption onto phosphocellulose as described previously. Nelson and Alkon, J. Neurochemistry (1995), vol. 65, pp. 2350-2357. For measurements of activation by BR-101 (DCP-LA) and similar compounds. PKC activity was measured in the absence of diacylglycerol and phosphatidylserine and PKC δ, ε, η, and μ were measured in the absence of added EGTA and CaCl2, as described by Kanno et al. (J. Lipid Res. 2006, vol. 47, pp. 1146-1150). […]
To determine their PKC isozyme specificity, fatty acid derivatives were preincubated with purified PKC for five minutes and the PKC activity was measured radiometrically.

[6] = tested on: PKC; experiment: PKC activation over time in hippocampal primary neurons; type: cell-based, rat
Method: as §2
Protein kinase C assay. […] 0.5 Ci [^γ32P]ATP was added and ^32P-phosphoprotein formation was measured by adsorption onto phosphocellulose as described previously. […] PKC activity was measured in the absence of diacylglycerol and phosphatidylserine and PKC δ, ε, η, and μ were measured in the absence of added EGTA and CaCl2, as described by Kanno et al. (J. Lipid Res. 2006, vol. 47, pp. 1146-1150). […]

CCCCCC1CC1CC1CC1CCCCCCCC(=O)O (stereo not drawn) [BR-101, 2-[(2-pentylcyclopropyl)methyl]cyclopropaneoctanoic acid]
concentration of maximal effect on PKCε [1]: 100 nM | TACE activity [2]: small increases | effect on cell survival [3]: no effect | effect on proliferation [3]: no effect | levels of intracellular Aβ ([4]; various concentrations): markedly reduced | levels of secreted Aβ ([4]; various concentrations): markedly reduced | concentration dependence of Aβ inhibition ([4]; fatty acid derivatives up to 10 μM to 100 μM): monotonically increasing inhibition | effect on PKCδ at higher concentrations [5]: partially inhibited | duration of elevated PKC [6]: remained elevated for at least four hours
